Source: patent publication US20070197453A1, “Compositions and methods for treatment of disorders of protein aggregation” (priority 2006, published 2007)
“Also recorded” adds a separate entry of the source. Marks after values point to notes of the source that are not given here.

Key:
[1] = test system: LTP in mouse hippocampal slices; assay: Long term potentiation in hippocampal slices with 7PA2 conditioned medium; type: cell-based; conditions: compound treated culture media from plain CHO cells
Procedure: Long Term Potentiation. […] Swiss Webster mice between the ages of P16 and P26 were anesthetized with isoflurane. […] The hippocampus from each hemisphere was isolated and 350 μm coronal sections were made. […] Once placed in the chamber, slices were continuously perfused by a closed loop containing 15 ml of ACSF to conserve the oligomeric Aβ. […] A bipolar stimulating electrode (World Precision Inst.) was placed in the Schaffer collaterals to deliver baseline stimuli and tetani. A borosilicate glass recording electrode (2-4 MΩ) containing ACSF was positioned approximately 75-200 μm from the stimulating electrode. […] Test stimuli were delivered at 0.05 Hz. To induce LTP, 4 tetani (100 Hz for 1 second) were delivered 5 minutes apart. Field potential responses were amplified 10× using an Axopatch 200B. The data was sampled at 10 kHz and filtered at 2 kHz. Traces were analyzed using pClamp 9.2. The slope of the field potential was estimated using approximately 10-60% of the total response.

[2] = test system: TgCRND8 mice; assay: Morris Water Maze spatial reference memory test; type: in vivo, mouse
Procedure: (§1) Behavioural tests: Morris Water Maze testing was performed as previously described. After non-spatial pre-training, mice underwent place discrimination training for 5 days with 4-trials per day, followed by a cued visible platform to rule out general motivational, learning deficits and motor problems, and a probe trial to evaluate memory. […] Open field test for motor activity was preformed as described previously. Duration of walking, pausing and grooming were analyzed as indices of spontaneous locomotor activity. Sensorimotor function was examined with an Economex™ accelerating rotarod (Columbus Instruments, Columbus, Ohio), as described elsewhere. The rod was set to accelerate at a rate of 0.2 r.p.m./s, from an initial, constant speed of 5 r.p.m. Latency to fall was recorded in four daily trials, conducted at 30 min intervals. All mice were trained for seven days before testing. The test day performance score for each animal was obtained by summing its latency to fall over the four trials
Behavioural tests: Behavioural analyses were performed using the Morris Water Maze test (13, 14). After pre-spatial training, mice underwent place discrimination training for 5 days with 4 trials per day, followed by a cued visible platform to rule out general motivational, learning deficits and motor problems. […] Open field test for motor activity was performed as described previously. Duration of walking, pausing, rearing and grooming were analyzed as indices of spontaneous locomotor activity.

[3] = molecular target: T1, Aβ42 (Homo sapiens, UniProt P05067); assay: Cerebral Aβ content: brain Aβ42 (ELISA kit); type: in vivo, mouse; set-up: from tissue; host or cells: hemi-brain homogenate of TgCRND8 transgenic mice; conditions: TgCRND8 mice with pre-existing disease; 28 day treatment from 5 months of age
Procedure: (§2) Plasma and Cerebral Aβ Content. Hemi-brain samples were homogenized in a buffered sucrose solution, followed by either 0.4% diethylamine/100 mM NaCl for soluble Aβ levels or cold formic acid for the isolation of total Aβ. After neutralization, the samples were diluted and analyzed for Aβ40 and Aβ42 using commercially available kits (BIOSOURCE International). Each hemisphere was analyzed in triplicate and the mean values±SEM reported. Western blot analyses were performed on all fractions using urea gels for Aβ species analyses. Aβ was detected using 6E10 (BIOSOURCE International) and Enhanced Chemiluminenscence (Amersham).
(§3) Cerebral Aβ Content. Hemi-brain samples were homogenized in a buffered sucrose solution, followed by either 0.4% diethylamine/100 mM NaCl for soluble Aβ levels or cold formic acid for the isolation of total Aβ [22]. After neutralization the samples were diluted and analyzed for Aβ40 and Aβ42 using commercially available kits (BIOSOURCE International). Each hemisphere was analyzed in triplicate with the mean±SEM reported. Plasma was diluted and run directly on the ELISA.
Target sequence in this assay (P05067 672-713 limits assumed): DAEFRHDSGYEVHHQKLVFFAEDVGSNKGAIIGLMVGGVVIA

[4] = test system: TgCRND8 mice; assay: Accelerating rotarod sensorimotor function; type: in vivo, mouse; conditions: treated versus untreated TgCRND8 mice
Procedure: as §1

[5] = molecular target: T1, Aβ42; assay: Plasma Aβ42 levels; type: in vivo, mouse; set-up: from tissue; host or cells: plasma of TgCRND8 transgenic mice; conditions: TgCRND8 mice following 28 days of therapy at five months of age
Procedure: as §2, §3
Target sequence in this assay (P05067 672-713): as the sequence (P05067 672-713 limits assumed) above

[6] = molecular target: T2, Aβ40 (Homo sapiens, UniProt P05067); assay: Cerebral Aβ content: brain Aβ40 (ELISA kit); type: in vivo, mouse; conditions: TgCRND8 mice with pre-existing disease; 28 day treatment from 5 months of age
T2 construct: from tissue; host or cells: hemi-brain homogenate of TgCRND8 transgenic mice
Procedure: as §2, §3

[7] = test system: TgCRND8 mice; assay: Survival census (Kaplan-Meier); type: in vivo, mouse; conditions: compared to untreated TgCRND8 mice
Procedure: (§4) Survival Census: The probability of survival was assessed by the Kaplan-Meier technique, computing the probability of survival at every occurrence of death, thus making it suitable for small sample sizes. For the analyses of survival, 35 mice were used for each treatment group. The Tarone-Ware test was used to assess effects of treatments.
as §4, with “technique” for “technique,”, “30” for “35”

[8] = test system: TgTauP301L mice; assay: Synaptophysin reactivity in TgTauP301L mice; type: in vivo, mouse; conditions: TgTauP301L mice after treatment
Procedure: Synaptophysin immunohistochemical staining was performed on 3 evenly spaced saggital sections of paraformaldehyde-fixed treated and control mice. Sections were immunolabelled for synaptophysin with anti-synaptophysin IgG (1:40; Roche, Laval, PQ). Digital images were captured and analyzed as described above. Within each section, three randomly chosen 100 μm^2 areas of the CA1 region of the hippocampus were counted for synaptophysin reactive cell bodies and boutons. The results are expressed as the mean of the number of reactive bodies and boutons per 100 μm^2 [29, 30].

[9] = test system: TgCRND8 mice; assay: Gliosis quantitation (GFAP astrocytes, CD68 microglia); type: in vivo, mouse
Procedure: Gliosis Quantitation. Five randomly selected, evenly spaced, sagittal sections were collected from paraformaldehyde-fixed and frozen hemispheres of treated and control mice. Sections were immunolabelled for astrocytes with anti-rat GFAP IgG2a (Dako; diluted 1:50) and for microglia with anti-rat CD68 IgG2b (Dako; 1:50). Digital images were captured using a Coolsnap digital camera (Photometrics, Tuscon, Ariz.) mounted to a Zeiss, Axioscope 2 Plus microscope. Images were analysed using Openlab 3.08 imaging software (Improvision, Lexington Mass.).

[10] = test system: TgCRND8 mice; assay: Cerebral amyloid plaque burden (anti-Aβ immunostaining, image analysis); type: in vivo, mouse
Procedure: (§5) Cerebral amyloid burden. Brains were removed and one hemisphere was fixed in 4% paraformaldehyde and embedded in paraffin wax in the mid sagittal plane. To generate sets of systematic uniform random sections, 5 μm serial sections were collected across the entire hemisphere. Sets of sections at 50 μm intervals were used for analyses (10-14 sections/set). Plaques were identified after antigen retrieval with formic acid, and incubation with primary anti-Aβ antibody (Dako M-0872), followed by secondary antibody (Dako StreptABCcomplex/horseradish kit). End products were visualized with DAB and were counter-stained with luxol fast blue. Amyloid plaque burden was assessed with Leco IA-3001 image analysis software interfaced with Leica microscope and Hitachi KP-M1U CCD video camera. Openlab imaging software (Improvision, Lexington, Mass.) was then used to convert micrographs to binary images for plaque number and plaque area determinations. Vascular amyloid burden was defined as amyloid originating from or surrounding blood vessels and was analysed similarly.

[11] = test system: TgCRND8 mice; assay: Vascular amyloid burden; type: in vivo, mouse; conditions: compared to untreated and epi-inositol treated
Procedure: as §5

[12] = six month old TgCRND8 mice, 28 days of oral treatment beginning at five months of age
[13] = TgCRND8 mice, 4-month Prophylactic (oral from 6 weeks to 4 months of age)
[14] = TgCRND8 mice, 6-month Prophylactic (oral from 6 weeks to 6 months of age)
[15] = TgCRND8 mice, 28 day course at 5 months of age, vs untreated
[16] = TgCRND8 mice, oral treatment for 28 days (1 month) from 5 months of age, analysed at 6 months

T2 sequence (P05067 672-711): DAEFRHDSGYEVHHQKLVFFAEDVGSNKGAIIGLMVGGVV

O[C@H]1[C@H](O)[C@@H](O)[C@H](O)[C@@H](O)[C@@H]1O [scyllo-cyclohexanehexol, 1,3,5/2,4,6-(scyllo-)cyclohexanehexol]
direct effect on LTP [1]: no direct effect on LTP
effects on cognition and pathology ([2]; TgCRND8 mice, administered for 2 months, ending at 7 months of age): Sustained effects both on cognition and pathology were observed
Non-Tg littermate behaviour under treatment ([2]; mouse, in vivo): not affected
cognition compared to non-Tg mice ([2]; prophylactic treatment, four months of age): approached that of non-Tg mice
probe trial, % time in target quadrant ([2]; separate cohort of TgCRND8 mice, compared to non-Tg littermates, data not shown): not statistically different from non-Tg littermates
spatial reference memory performance compared to non-Tg littermates [2, 12]: indistinguishable from that of their non-Tg littermates
spatial reference memory performance compared to untreated TgCRND8 littermates [2, 12]: significantly better behavioural performance compared to untreated TgCRND8 mice; also recorded: significantly better than untreated TgCRND8 littermates
effect on brain Aβ42 levels [3]: reduced brain levels of Aβ40 and Aβ42
Rotarod sensorimotor function [4]: no difference
Plasma Aβ42 levels [5]: 990 ± 73 pg/mL
effect on brain Aβ40 levels [6]: reduced brain levels of Aβ40 and Aβ42
Kaplan Meier cumulative survival [7]: increased survival
synaptophysin reactivity [8]: unchanged
percent brain area covered with microgliosis ([9]; TgCRND8 mice): decreased the percent brain area covered with microgliosis
astrogliosis / gliosis, anti-GFAP immunostaining ([9]; TgCRND8 mice at six months of age): significantly decreased amyloid burden and gliosis
percent brain area covered in astrogliosis ([9]; TgCRND8 mice, 4- and 6-months of age): decreased the astrogliotic response to a greater extent at both ages
amyloid (plaque) burden, immunostaining ([10]; TgCRND8 mice at six months of age, hippocampus and cerebral cortex): significantly decreased amyloid burden and gliosis
plaque burden (percent area of the brain covered with plaques, plaque number) ([10]; TgCRND8 mice with pre-existing disease, one month treatment from 5 months of age): lower plaque burden
Mean Plaque Size [10, 13]: 103 ± 4* μm^2
Total Plaque Area [10, 13]: 63847 ± 2895 μm^2
Mean Plaque Size [10, 14]: 339 ± 10† μm^2
Total Plaque Area [10, 14]: 262379 ± 5373† μm^2
percent area of the brain covered by plaques reduction [10, 15]: 14±0.5%
plaque number reduction [10, 15]: 13±0.3%
plaque size reduction [10, 15]: 16±0.4%
Mean Plaque Size [10, 16]: 336 ± 6* μm^2
Total Plaque Area [10, 16]: 420027 ± 14986* μm^2
total vascular Aβ load [11]: significantly decreased the total vascular load
